Experiment [1] has as its system Pseudomonas aeruginosa, Staphylococcus aureus, and Escherichia coli. The experiment in a line: Shorter-term bacterial test per ASTM D 5588-94. Type of experiment: cell-based. Particulars: after 72 hours of incubation; 0.1 percent and 1 percent formulations. On the procedure:
Steel coupons were coated with the Fungitrol® 11, Butyl Parabens®, and Amerstat® 300 anti-microbial formulations, at 0.1 percent and 1 percent, and exposed as per ASTM D 5588-94 to a mixture containing the bacteria Pseudomonas aeruginosa, Staphylococcus aureus, and Escherichia coli. After the coupons were washed with a 70 percent ethanol/water solution, they were placed in a sterile Petri dish, inoculated, and incubated at 32° C. for the duration of the test.
At appropriate intervals, each sample was checked for the presence of viable microorganisms by streaking each sample with a sterile cotton swab, then streaking the swab onto Tryptic Soy Agar. The plates were incubated for 48 hours at 32° C. […] The presence of microbial growth would indicate non-sterility, i.e., the sample contained viable microbial contamination.
The samples were examined for low levels of bacterial contamination by transferring an aliquot with a sterile cotton swab to a Tryptic Soy Broth in culture tubes. The tubes were incubated for 24 hours at 32° C., streaked onto Tryptic Soy Agar plates and the plates were incubated for 24 to 48 hours at 32° C.

Experiment [2] relates to Pseudomonas aeruginosa, Escherichia coli, and Salmonella typhinurium. The experiment in a line: Long-term anti-microbial activity test of cured powder coatings (bacterial coverage rating). The following applies: cured epoxy powder coating; for AVERAGE BACTERIAL COVERAGE: growth rating 0 (good) to 4 (poor), averaged over the different samples (0.1 and 1 percent additive, different thickness), after four weeks; for bacterial coverage / activity relative to the control: long-term test.
Protocol: A long-term anti-microbial activity test was carried out to determine if selected anti-microbial agents maintain their anti-microbial activity after being incorporated into powder coatings and cured.
Six anti-microbial agents were selected for experimentation. […] For each powder coating formulation, one of the six anti-microbial agents was added at concentrations of 0.1 percent and 1 percent of the total resin weight.
Samples containing one of the six additives at the two concentrations in the coating matrix were prepared. […] Controls containing the coating formulation with no additive and controls containing only the black silicone resin used for edge coverage were included.
The target bacterial organisms were Pseudomonas aeruginosa, Escherichia coli, and Salmonella typhinurium. Five groups of samples were prepared. […] Each of the following samples was prepared with an additive concentration of 1 percent of the resin by weight.
The results were then rated on a scale of “0” (good performance) to “4” (poor performance) based on the number of colony-forming units observed. The growth ratings, which were averaged over the different samples, are based on the following numerical rating system:
0=No contamination (sterile).
1=Trace of contamination (1-9 colonies per “streak-inch”).
2=Light contamination (10-99 colonies per “streak-inch”).
3=Moderate contamination (greater than 100 colonies, but still distinguishable).
4=Heavy contamination (continuous smear of growth).

Experiment [3] has as its system Aspergillus niger (ATCC 6275), Penicillium funiculosum (ATCC 11797), and Aureobasidium pullulans (ATCC 9348). The experiment in a line: Resistance to fungal growth, ASTM D5590-95, mixed spore suspension. Particulars: concentration of 1 percent; four weeks of exposure to fungus spores.
Protocol: Resistance to fungal growth was tested generally in accordance with ASTM D5590-95. […] Samples were aseptically placed onto a modified malt agar plate and then each sample was inoculated.
The same samples were also exposed to fungus spores for a period of four weeks.
Experiment [4] concerns fungus spores of Aspergillus niger, Penicillium funiculosum, and Aerobasidium pullulans. The experiment in a line: Shorter-term fungal test per ASTM D 5588-94. It is filed as cell-based. Particulars: after 72 hours of incubation. On the procedure:
Next, steel coupons were coated with the anti-microbial formulations listed above and exposed per ASTM D 5588-94 to a mixture containing the fungus spores of Aspergillus niger, Penicillium funiculosum, and Aerobasidium pullulans. After the coupons were washed with a 70 percent ethanol/water solution, they were placed in a sterile Petri dish, inoculated, and incubated at 28° C. for the duration of the test. At appropriate intervals, each sample was checked for the presence of viable microorganisms by streaking each sample with a sterile cotton swab, then streaking the swab onto Potato Dextrose Agar (adjusted to pH 3.5 for fungi). These plates were also incubated at 28° C. […] The presence of microbial growth would indicate non-sterility, i.e., the sample contained viable microbial contamination.

Experiment [5] concerns Staphylococcus aureus, Escherichia coli, and Salmonella choleraesuis. The experiment in a line: AATCC Test Method 147 at higher anti-microbial concentration (zones of inhibition).
[6] abbreviates: 5 percent agent in powder coating.

Regarding `N#CC(Br)(Br)C(N)=O` [Amerstat® 300, dibromocyanoacetamide], the “bacterial growth on coated samples” value in experiment [1] was “did not show conclusive results”. Further, in experiment [2], the “AVERAGE BACTERIAL COVERAGE” value stood at 1.6 ± 1.5 and the “bacterial coverage / activity relative to the control” value is “significantly improved bacterial coverage”. In addition, the “fungal growth on coating surface” value in experiment [3] is “a very small amount of fungal growth”.
As to `CCCCOC(=O)c1ccc(O)cc1` [Butyl Parabens®, butyl-p-hydroxy-benzoate], the “growth on coated samples exposed to fungus spores” value in experiment [4] is “free of (or showed very low levels of) bacterial growth”. Besides, in experiment [1], the “bacterial growth on coated samples” value is “free of bacterial growth and were actually sterile”. The “AVERAGE BACTERIAL COVERAGE” value in experiment [2] is 2.6 ± 1.3. Also, the “fungal growth on coating surface” value in experiment [3] is listed as “free of visible fungal growth”.
As to `O=[N+]([O-])C(Br)(CO)CO` [Canguard® 409, 2-bromo-2-nitropropane-1,3-diol], the zones of inhibition entry in experiment [5] (setting [6]) is listed as “Significant zones of inhibition”. Further, the “inhibiting the growth of Escherichia coli and Salmonella choleraesuis, compared with the triclosan formulation” value in experiment [5] is given as “performed better than the triclosan formulation”.
`Oc1cc(Cl)ccc1Oc1ccc(Cl)cc1Cl` [Irgasan® DP 400, 5-chloro-2-(2,4-dichloro-phenoxy)phenol]: the zones of inhibition entry in experiment [5] (3 percent agent in powder coating) was “Significant zones of inhibition”.
As for `N#Cc1c(Cl)c(Cl)c(Cl)c(C#N)c1Cl` [Nuocide® 960, tetrachloroisophthalonitrile], the “AVERAGE BACTERIAL COVERAGE” value in experiment [2] came out at 3.0 ± 1.3. Also, in experiment [3], the “fungal growth on coating surface” value is given as “free of visible fungal growth”.
Take `CN1CSC(=S)N(C)C1` [Nuosept® S, 3,5-dimethyltetrahydro-1,3,5-2H-thiazine-2-thione]: the zones of inhibition entry in experiment [5] (setting [6]) was “Significant zones of inhibition”. Besides, the zones of inhibition entry in experiment [5] (10 percent agent in powder coating) is reported as “Significant zones of inhibition”. In experiment [5], the “inhibiting the growth of Escherichia coli and Salmonella choleraesuis, compared with the triclosan formulation” value is listed as “performed as well as or better than the triclosan formulation”. In addition, in experiment [2], the “AVERAGE BACTERIAL COVERAGE” value is 3.6 ± 0.5 and the “bacterial coverage / activity relative to the control” value is reported as “did not appear to improve the activity relative to the control”. In experiment [3], the “fungal growth on coating surface” value is on record as “did not show conclusive fungal resistance”.
Consider `CCCOC(=O)c1ccc(O)cc1` [Propyl Parabens®], for which, in experiment [2], the “AVERAGE BACTERIAL COVERAGE” value was found to be 3.7 ± 0.5 and the “bacterial coverage / activity relative to the control” value is listed as “did not appear to improve the activity relative to the control”. The “fungal growth on coating surface” value in experiment [3] is reported as “free of visible fungal growth”.

These data come from US6432416B1, “Anti-microbial power coating” (Dupont Powder Coatings USA, Inc., priority 1997, dated 2002).
